Paper PMC9856672, “SGC-CAMKK2-1: A Chemical Probe for CAMKK2” (Cells, 2023)

Columns and labels:
PIK3CA(E545K) = target: T1, PIK3CA(E545K) (Homo sapiens, UniProt P42336, E545K); test: KINOMEscan at 1 μM, PIK3CA(E545K); assay type: binding; details: 1000 nM, read-out: Percent Control
T1 construct: purchased Eurofins DiscoverX KINOMEscan
Description: (§1) Supplement cells-12-00287-s001.zip/File S2. KinomeScan data for the CAMKK2 probe and negative control.xlsx, sheet "SGC-CAMKK2-1N" | column: Percent Control

BRSK2 = target: T2, BRSK2 (Homo sapiens, UniProt Q8IWQ3); test: KINOMEscan at 1 μM, BRSK2; assay type: binding; details: 1000 nM, read-out: Percent Control
T2 construct: purchased Eurofins DiscoverX KINOMEscan
Description: as §1

FLT3-autoinhibited = target: T3, FLT3-autoinhibited (Homo sapiens, UniProt P36888); test: KINOMEscan at 1 μM, FLT3-autoinhibited; assay type: binding; details: 1000 nM, read-out: Percent Control
T3 construct: purchased Eurofins DiscoverX KINOMEscan
Description: as §1

p38-delta = target: T4, p38-delta (Homo sapiens, UniProt O15264); test: KINOMEscan at 1 μM, p38-delta; assay type: binding; details: 1000 nM, read-out: Percent Control
T4 construct: purchased Eurofins DiscoverX KINOMEscan
Description: as §1

MYLK2 = target: T5, MYLK2 (Homo sapiens, UniProt Q9H1R3); test: KINOMEscan at 1 μM, MYLK2; assay type: binding; details: 1000 nM, read-out: Percent Control
T5 construct: purchased Eurofins DiscoverX KINOMEscan
T5 sequence (Q9H1R3 whole entry): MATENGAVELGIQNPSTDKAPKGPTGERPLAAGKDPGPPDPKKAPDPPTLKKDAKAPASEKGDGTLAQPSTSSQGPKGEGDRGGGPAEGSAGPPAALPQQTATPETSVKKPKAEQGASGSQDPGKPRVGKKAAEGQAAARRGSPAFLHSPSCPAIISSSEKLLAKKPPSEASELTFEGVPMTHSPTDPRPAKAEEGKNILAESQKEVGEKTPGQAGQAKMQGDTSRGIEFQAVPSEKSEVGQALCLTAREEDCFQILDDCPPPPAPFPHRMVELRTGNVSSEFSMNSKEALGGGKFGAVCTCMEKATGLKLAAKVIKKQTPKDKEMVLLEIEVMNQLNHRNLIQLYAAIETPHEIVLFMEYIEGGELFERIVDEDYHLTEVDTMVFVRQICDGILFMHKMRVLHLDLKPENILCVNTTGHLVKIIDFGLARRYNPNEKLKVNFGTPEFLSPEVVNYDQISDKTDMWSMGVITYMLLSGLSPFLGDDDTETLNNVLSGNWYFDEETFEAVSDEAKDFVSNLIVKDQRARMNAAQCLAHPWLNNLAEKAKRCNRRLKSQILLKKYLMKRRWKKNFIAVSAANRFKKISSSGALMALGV
Description: as §1

FLT3(ITD,D835V) = test: KINOMEscan binding assay at 1 μM, FLT3(ITD,D835V); parameters: species or system human; details: Compound Concentration 1000 nM
Description: as §1

MET(M1250T) = target: T6, MET(M1250T) (Homo sapiens, UniProt P08581, M1250T); test: KINOMEscan binding assay at 1 μM, MET(M1250T); details: Compound Concentration 1000 nM; read-out: Percent Control
T6 construct: purchased Eurofins DiscoverX KINOMEscan
Description: as §1

ERK2 = target: T7, ERK2 (Homo sapiens, UniProt P28482); test: KINOMEscan binding assay at 1 μM, ERK2; details: Compound Concentration 1000 nM; read-out: Percent Control
T7 construct: purchased Eurofins DiscoverX KINOMEscan
T7 sequence (P28482 whole entry): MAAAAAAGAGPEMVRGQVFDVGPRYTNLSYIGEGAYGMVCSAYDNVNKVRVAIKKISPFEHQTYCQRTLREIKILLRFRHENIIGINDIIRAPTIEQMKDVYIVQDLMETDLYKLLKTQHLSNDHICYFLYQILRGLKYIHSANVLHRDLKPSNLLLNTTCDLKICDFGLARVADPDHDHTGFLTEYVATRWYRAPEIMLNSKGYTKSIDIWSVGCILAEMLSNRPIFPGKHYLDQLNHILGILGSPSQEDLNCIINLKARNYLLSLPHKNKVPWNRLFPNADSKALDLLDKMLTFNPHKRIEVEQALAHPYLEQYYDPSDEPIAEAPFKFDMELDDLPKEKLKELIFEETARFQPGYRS
Description: as §1

INSRR = target: T8, INSRR (Homo sapiens, UniProt P14616); test: KINOMEscan at 1 μM, INSRR; assay type: binding; details: 1000 nM, read-out: Percent Control
T8 construct: purchased Eurofins DiscoverX KINOMEscan
T8 sequence (P14616 27-1297): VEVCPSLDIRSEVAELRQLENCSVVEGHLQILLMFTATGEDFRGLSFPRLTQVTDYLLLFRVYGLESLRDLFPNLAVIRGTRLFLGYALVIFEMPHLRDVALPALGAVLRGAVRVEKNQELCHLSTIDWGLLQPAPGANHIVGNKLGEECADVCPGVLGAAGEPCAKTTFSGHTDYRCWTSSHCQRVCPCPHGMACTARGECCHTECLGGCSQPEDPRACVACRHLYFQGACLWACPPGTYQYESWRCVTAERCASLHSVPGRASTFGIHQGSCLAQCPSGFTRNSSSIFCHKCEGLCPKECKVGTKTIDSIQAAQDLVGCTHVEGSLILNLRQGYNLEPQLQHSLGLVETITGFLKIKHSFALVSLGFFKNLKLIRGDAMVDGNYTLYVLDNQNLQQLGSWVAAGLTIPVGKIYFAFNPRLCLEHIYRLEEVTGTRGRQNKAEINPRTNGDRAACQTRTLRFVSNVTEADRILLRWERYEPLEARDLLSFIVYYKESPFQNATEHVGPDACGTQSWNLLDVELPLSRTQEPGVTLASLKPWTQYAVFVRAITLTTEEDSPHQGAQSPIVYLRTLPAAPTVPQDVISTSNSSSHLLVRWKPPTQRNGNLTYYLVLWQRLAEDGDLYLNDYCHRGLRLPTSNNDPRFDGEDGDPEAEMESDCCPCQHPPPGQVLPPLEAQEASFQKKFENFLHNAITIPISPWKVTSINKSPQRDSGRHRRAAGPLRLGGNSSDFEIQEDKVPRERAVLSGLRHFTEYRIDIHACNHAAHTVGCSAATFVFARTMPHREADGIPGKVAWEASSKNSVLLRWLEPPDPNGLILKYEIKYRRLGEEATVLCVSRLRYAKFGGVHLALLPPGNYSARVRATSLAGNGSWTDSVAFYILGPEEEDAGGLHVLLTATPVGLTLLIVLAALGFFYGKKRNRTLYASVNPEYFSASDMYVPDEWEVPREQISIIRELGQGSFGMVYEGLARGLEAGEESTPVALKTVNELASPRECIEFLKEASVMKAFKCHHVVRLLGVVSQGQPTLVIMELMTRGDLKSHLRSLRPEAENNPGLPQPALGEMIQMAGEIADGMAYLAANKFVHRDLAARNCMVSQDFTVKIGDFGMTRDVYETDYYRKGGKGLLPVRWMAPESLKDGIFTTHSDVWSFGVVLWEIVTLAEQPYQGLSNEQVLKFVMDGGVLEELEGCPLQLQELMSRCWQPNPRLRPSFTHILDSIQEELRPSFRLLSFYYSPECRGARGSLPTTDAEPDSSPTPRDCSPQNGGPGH
Description: as §1

PDGFRB = target: T9, PDGFRB (Homo sapiens, UniProt P09619); test: KINOMEscan at 1 μM, PDGFRB; assay type: binding; details: 1000 nM, read-out: Percent Control
T9 construct: purchased Eurofins DiscoverX KINOMEscan
Description: as §1

LTK = target: T10, LTK (Homo sapiens, UniProt P29376); test: KINOMEscan binding assay at 1 μM, LTK; details: Compound Concentration 1000 nM; read-out: Percent Control
T10 construct: purchased Eurofins DiscoverX KINOMEscan
Description: as §1

MARK1 = target: T11, MARK1 (Homo sapiens, UniProt Q9P0L2); test: KINOMEscan at 1 μM, MARK1; assay type: binding; details: 1000 nM, read-out: Percent Control
T11 construct: purchased Eurofins DiscoverX KINOMEscan
Description: as §1

DYRK1B = target: T12, DYRK1B (Homo sapiens, UniProt Q9Y463); test: KINOMEscan at 1 μM, DYRK1B; assay type: binding; details: 1000 nM, read-out: Percent Control
T12 construct: purchased Eurofins DiscoverX KINOMEscan
T12 sequence (Q9Y463 whole entry): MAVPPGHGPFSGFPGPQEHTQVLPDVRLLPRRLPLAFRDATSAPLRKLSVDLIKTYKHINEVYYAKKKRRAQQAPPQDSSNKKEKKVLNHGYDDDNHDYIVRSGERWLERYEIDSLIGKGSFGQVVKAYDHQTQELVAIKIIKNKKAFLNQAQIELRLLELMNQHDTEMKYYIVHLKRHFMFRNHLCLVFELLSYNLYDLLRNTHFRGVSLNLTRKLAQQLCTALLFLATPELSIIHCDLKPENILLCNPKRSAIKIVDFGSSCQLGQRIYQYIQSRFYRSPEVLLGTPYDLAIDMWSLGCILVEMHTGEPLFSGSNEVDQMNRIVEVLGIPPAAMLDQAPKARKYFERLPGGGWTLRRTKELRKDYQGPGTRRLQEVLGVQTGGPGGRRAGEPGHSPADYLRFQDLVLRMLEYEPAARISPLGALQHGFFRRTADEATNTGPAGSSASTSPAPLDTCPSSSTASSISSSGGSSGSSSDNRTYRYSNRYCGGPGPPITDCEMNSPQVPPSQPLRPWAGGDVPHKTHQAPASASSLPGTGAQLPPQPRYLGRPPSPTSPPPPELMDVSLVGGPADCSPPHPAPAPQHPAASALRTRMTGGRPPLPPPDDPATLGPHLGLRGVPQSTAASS
Description: as §1

GAK = target: T13, GAK (Homo sapiens, UniProt O14976); test: KINOMEscan at 1 μM, GAK; assay type: binding; details: 1000 nM, read-out: Percent Control
T13 construct: purchased Eurofins DiscoverX KINOMEscan
Description: as §1

NEK2 = target: T14, NEK2 (Homo sapiens, UniProt P51955); test: KINOMEscan at 1 μM, NEK2; assay type: binding; details: 1000 nM, read-out: Percent Control
T14 construct: purchased Eurofins DiscoverX KINOMEscan
T14 sequence (P51955 whole entry): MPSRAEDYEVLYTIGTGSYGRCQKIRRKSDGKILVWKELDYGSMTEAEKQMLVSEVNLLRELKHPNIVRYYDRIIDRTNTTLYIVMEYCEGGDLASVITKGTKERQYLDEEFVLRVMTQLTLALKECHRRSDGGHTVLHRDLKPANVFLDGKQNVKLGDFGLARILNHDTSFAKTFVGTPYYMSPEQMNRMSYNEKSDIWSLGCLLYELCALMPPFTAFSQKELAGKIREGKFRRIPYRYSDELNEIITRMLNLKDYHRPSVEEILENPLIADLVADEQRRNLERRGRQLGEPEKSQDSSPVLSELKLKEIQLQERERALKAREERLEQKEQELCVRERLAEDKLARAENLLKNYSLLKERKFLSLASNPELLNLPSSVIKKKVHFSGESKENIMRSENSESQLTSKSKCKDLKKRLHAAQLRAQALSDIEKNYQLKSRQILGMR
Description: as §1

RIPK4 = target: T15, RIPK4 (Homo sapiens, UniProt P57078); test: KINOMEscan at 1 μM, RIPK4; assay type: binding; details: 1000 nM, read-out: Percent Control
T15 construct: purchased Eurofins DiscoverX KINOMEscan
Description: as §1

KIT(V559D,T670I) = target: T16, KIT(V559D,T670I) (Homo sapiens, UniProt P10721, T670I/V559D); test: KINOMEscan binding assay at 1 μM, KIT(V559D,T670I); details: Compound Concentration 1000 nM; read-out: Percent Control
T16 construct: purchased Eurofins DiscoverX KINOMEscan
T16 sequence (P10721 26-976 V559D/T670I): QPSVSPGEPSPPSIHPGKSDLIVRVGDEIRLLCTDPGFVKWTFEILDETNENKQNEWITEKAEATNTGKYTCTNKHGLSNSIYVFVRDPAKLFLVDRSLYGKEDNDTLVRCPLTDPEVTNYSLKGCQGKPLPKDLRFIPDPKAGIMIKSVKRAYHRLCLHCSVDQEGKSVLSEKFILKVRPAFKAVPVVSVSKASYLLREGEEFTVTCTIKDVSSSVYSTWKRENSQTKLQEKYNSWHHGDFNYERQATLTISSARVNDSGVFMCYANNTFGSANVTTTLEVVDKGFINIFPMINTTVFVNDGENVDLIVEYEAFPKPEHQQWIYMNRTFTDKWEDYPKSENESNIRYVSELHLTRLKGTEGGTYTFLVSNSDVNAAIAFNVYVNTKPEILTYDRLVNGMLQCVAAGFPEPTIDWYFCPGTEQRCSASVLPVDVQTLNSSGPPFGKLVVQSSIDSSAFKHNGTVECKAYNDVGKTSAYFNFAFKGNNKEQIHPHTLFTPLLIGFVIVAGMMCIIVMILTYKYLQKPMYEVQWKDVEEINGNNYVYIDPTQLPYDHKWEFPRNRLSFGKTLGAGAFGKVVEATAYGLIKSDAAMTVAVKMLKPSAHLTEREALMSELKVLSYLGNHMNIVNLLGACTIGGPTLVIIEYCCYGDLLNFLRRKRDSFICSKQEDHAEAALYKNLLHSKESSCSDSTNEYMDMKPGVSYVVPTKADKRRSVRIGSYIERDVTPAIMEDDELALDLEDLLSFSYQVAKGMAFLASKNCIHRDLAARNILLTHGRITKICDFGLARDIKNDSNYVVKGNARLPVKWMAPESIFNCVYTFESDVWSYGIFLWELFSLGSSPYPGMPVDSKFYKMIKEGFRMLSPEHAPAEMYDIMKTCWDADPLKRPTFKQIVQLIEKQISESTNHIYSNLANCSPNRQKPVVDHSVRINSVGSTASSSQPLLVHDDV
Description: as §1

PIK3CA(E545A) = target: T17, PIK3CA(E545A) (Homo sapiens, UniProt P42336, E545A); test: DiscoverX KINOMEscan binding assay at 1 μM, PIK3CA(E545A); details: Compound Concentration 1000 nM, read-out: Percent Control
T17 construct: purchased Eurofins DiscoverX KINOMEscan
Description: (§2) Supplement cells-12-00287-s001.zip/File S2. KinomeScan data for the CAMKK2 probe and negative control.xlsx, sheet "SGC-CAMKK2-1" | column: Percent Control

EGFR(L747-T751del,Sins) = test: KINOMEscan 1 μM, EGFR(L747-T751del,Sins); assay type: binding, human; details: 1000 nM; Entrez EGFR
Description: as §2

KIT(A829P) = target: T18, KIT(A829P) (Homo sapiens, UniProt P10721, A829P); test: KINOMEscan 1 μM, KIT(A829P); assay type: binding; details: 1000 nM; Entrez KIT; read-out: Percent Control
T18 construct: purchased Eurofins DiscoverX KINOMEscan
T18 sequence (P10721 26-976 A829P): as the sequence (P10721 26-976 V559D/T670I) above, with D534V, I645T, A804P counted along it
Description: as §2

AXL = target: T19, AXL (Homo sapiens, UniProt P30530); test: KINOMEscan 1 μM, AXL; assay type: binding; details: 1000 nM; Entrez AXL; read-out: Percent Control
T19 construct: purchased Eurofins DiscoverX KINOMEscan
Description: as §2

BRAF(V600E) = target: T20, BRAF(V600E) (Homo sapiens, UniProt P15056, V600E); test: KINOMEscan 1 μM, BRAF(V600E); assay type: binding; details: 1000 nM; Entrez BRAF; read-out: Percent Control
T20 construct: purchased Eurofins DiscoverX KINOMEscan
Description: as §2

ZAP70 = target: T21, ZAP70 (Homo sapiens, UniProt P43403); test: DiscoverX KINOMEscan binding assay at 1 μM, ZAP70; details: Compound Concentration 1000 nM, read-out: Percent Control
T21 construct: purchased Eurofins DiscoverX KINOMEscan
Description: as §2

AURKC = target: T22, AURKC (Homo sapiens, UniProt Q9UQB9); test: KINOMEscan 1 μM, AURKC; assay type: binding; details: 1000 nM; Entrez AURKC; read-out: Percent Control
T22 construct: purchased Eurofins DiscoverX KINOMEscan
Description: as §2

ACVR2B = target: T23, ACVR2B (Homo sapiens, UniProt Q13705); test: KINOMEscan 1 μM, ACVR2B; assay type: binding; details: 1000 nM; Entrez ACVR2B; read-out: Percent Control
T23 construct: purchased Eurofins DiscoverX KINOMEscan
Description: as §2

PFPK5(P.falciparum) = target: T24, PFPK5(P.falciparum) (Plasmodium falciparum, UniProt P61075); test: DiscoverX KINOMEscan binding assay at 1 μM, PFPK5(P.falciparum); details: PFPK5(P.falciparum) (MAL13P1.279); Compound Concentration 1000 nM; read-out: Percent Control
T24 construct: purchased Eurofins DiscoverX KINOMEscan
Description: as §2

MST3 = target: T25, MST3 (Homo sapiens, UniProt Q9Y6E0); test: KINOMEscan 1 μM, MST3; assay type: binding; details: 1000 nM; Entrez STK24; read-out: Percent Control
T25 construct: purchased Eurofins DiscoverX KINOMEscan
T25 sequence (Q9Y6E0 whole entry): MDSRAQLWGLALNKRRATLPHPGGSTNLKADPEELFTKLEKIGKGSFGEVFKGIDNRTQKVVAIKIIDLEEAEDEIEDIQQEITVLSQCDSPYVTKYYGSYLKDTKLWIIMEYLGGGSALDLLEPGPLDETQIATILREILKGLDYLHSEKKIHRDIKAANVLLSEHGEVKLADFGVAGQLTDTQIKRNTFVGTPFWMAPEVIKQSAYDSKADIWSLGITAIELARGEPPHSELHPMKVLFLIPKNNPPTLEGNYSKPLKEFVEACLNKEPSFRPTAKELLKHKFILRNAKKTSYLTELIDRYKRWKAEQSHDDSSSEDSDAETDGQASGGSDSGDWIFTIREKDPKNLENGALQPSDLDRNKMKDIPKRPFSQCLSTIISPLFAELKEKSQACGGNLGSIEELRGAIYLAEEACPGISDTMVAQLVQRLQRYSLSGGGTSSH
Description: as §2

WNK4 = target: T26, WNK4 (Homo sapiens, UniProt Q96J92); test: DiscoverX KINOMEscan binding assay at 1 μM, WNK4; details: Compound Concentration 1000 nM, read-out: Percent Control
T26 construct: purchased Eurofins DiscoverX KINOMEscan
Description: as §2

BTK = target: T27, BTK (Homo sapiens, UniProt Q06187); test: KINOMEscan 1 μM, BTK; assay type: binding; details: 1000 nM; Entrez BTK; read-out: Percent Control
T27 construct: purchased Eurofins DiscoverX KINOMEscan
Description: as §2

PDGFRA = target: T28, PDGFRA (Homo sapiens, UniProt P16234); test: DiscoverX KINOMEscan binding assay at 1 μM, PDGFRA; details: Compound Concentration 1000 nM, read-out: Percent Control
T28 construct: purchased Eurofins DiscoverX KINOMEscan
Description: as §2

p38-alpha = target: T29, p38-alpha (Homo sapiens, UniProt Q16539); test: KINOMEscan 1 μM, p38-alpha; assay type: binding; details: 1000 nM; Entrez MAPK14; read-out: Percent Control
T29 construct: purchased Eurofins DiscoverX KINOMEscan
Description: as §2

AURKB = target: T30, AURKB (Homo sapiens, UniProt Q96GD4); test: KINOMEscan 1 μM, AURKB; assay type: binding; details: 1000 nM; Entrez AURKB; read-out: Percent Control
T30 construct: purchased Eurofins DiscoverX KINOMEscan
Description: as §2

KIT(V559D,V654A) = target: T31, KIT(V559D,V654A) (Homo sapiens, UniProt P10721, V559D/V654A); test: KINOMEscan 1 μM, KIT(V559D,V654A); assay type: binding; details: 1000 nM; Entrez KIT; read-out: Percent Control
T31 construct: purchased Eurofins DiscoverX KINOMEscan
T31 sequence (P10721 26-976 V559D/V654A): as the sequence (P10721 26-976 V559D/T670I) above, with V629A, I645T counted along it
Description: as §2

DDR2 = target: T32, DDR2 (Homo sapiens, UniProt Q16832); test: KINOMEscan 1 μM, DDR2; assay type: binding; details: 1000 nM; Entrez DDR2; read-out: Percent Control
T32 construct: purchased Eurofins DiscoverX KINOMEscan
Description: as §2

O=C(O)c1ccc(-c2coc3ncc(-c4ccccc4)cc23)cc1Cl [SGC-CAMKK2-1N (UNC-YL-83)]
remaining binding at 1 µM (PIK3CA(E545K)): 93% | remaining binding at 1 µM (BRSK2): 100% | remaining binding at 1 µM (FLT3-autoinhibited): 91% | remaining binding at 1 µM (p38-delta): 98% | remaining binding at 1 µM (MYLK2): 82% | Percent Control (FLT3(ITD,D835V)): 100% | remaining binding at 1 µM (MET(M1250T)): 100% | remaining binding at 1 µM (ERK2): 100% | remaining binding at 1 µM (INSRR): 96% | remaining binding at 1 µM (PDGFRB): 92% | remaining binding at 1 µM (LTK): 100% | remaining binding at 1 µM (MARK1): 97% | remaining binding at 1 µM (DYRK1B): 94% | remaining binding at 1 µM (GAK): 88% | remaining binding at 1 µM (NEK2): 97% | remaining binding at 1 µM (RIPK4): 70% | remaining binding at 1 µM (KIT(V559D,T670I)): 100%

Cc1cccc(-c2cnc3occ(-c4ccc(C(=O)O)c(C5CCCC5)c4)c3c2)c1 [SGC-CAMKK2-1 (YL-36)]
remaining binding at 1 µM (PIK3CA(E545A)): 100% | Percent Control (EGFR(L747-T751del,Sins)): 85% | remaining binding at 1 µM (KIT(A829P)): 61% | remaining binding at 1 µM (AXL): 100% | remaining binding at 1 µM (BRAF(V600E)): 100% | remaining binding at 1 µM (ZAP70): 100% | remaining binding at 1 µM (AURKC): 99% | remaining binding at 1 µM (ACVR2B): 43% | remaining binding at 1 µM (PFPK5(P.falciparum)): 100% | remaining binding at 1 µM (MST3): 100% | remaining binding at 1 µM (WNK4): 100% | remaining binding at 1 µM (BTK): 100% | remaining binding at 1 µM (PDGFRA): 100% | remaining binding at 1 µM (p38-alpha): 100% | remaining binding at 1 µM (AURKB): 100% | remaining binding at 1 µM (KIT(V559D,V654A)): 100% | remaining binding at 1 µM (DDR2): 100%
